Results from US20240082212A1, “USE OF MDMA FOR TREATMENT OF STRESS-RELATED DISORDERS” (priority 2022, published 2024).
“Also recorded” adds a separate entry of the source.

Tests used:
CD (Sprague Dawley) rats = assay: Rat functional observation battery (FOB) neurobehavioral evaluation after cumulative SC dosing; type: in vivo
Experimental: The observations were assessed through a rat functional observation battery (FOB) and continuous physiological measurements on the day of cumulative dosing, which are provided in further detail below.
Methods. A total of 42 adult male CD® (Sprague Dawley) rats (Charles River Laboratories) were surgically implanted with DSI radiotelemetry devices by personnel at Charles River Laboratories Raleigh, NC, per their test site SOPs. Telemetry devices supported continuous recording of temperature, activity, blood pressure and heart rate. Telemeterized rats were shipped to the Charles River Laboratories testing facility (Mattawan, MI) and acclimated to the environment for at least 1 week prior to experimentation. Animals were pair-housed in solid bottom cages with nonaromatic bedding. On the dosing day, animals were singly housed and then returned to the paired cohort following the dosing/telemetry recording phase. Diet (Lab Diet® Certified Rodent Diet #5CR4) and tap water via an automatic water system were available ad libitum, except during designated procedures. Temperature and humidity were maintained according to the Testing Facility SOP. Animals were randomized into treatment groups using a standard, by weight, measured value randomization procedure. Body weight was determined for each rat prior to dosing.
As illustrated in the Table, a total of 36 rats were included in the study. The vehicle and 2 test article doses were administered in a volume of 1 mL/kg to each of 3 groups of n=12 telemeterized rats via subcutaneous injection four times on a given day, followed by neurobehavioral evaluations. This series was repeated 3 times on study. Each group received all 3 dose levels of the applicable test or control article in ascending order with a 1-week washout between dose levels.
Mortality/cage side clinical observations were conducted for all study animals at least twice daily beginning upon receipt through termination, except on days of receipt and termination where frequency was at least once daily. Detailed clinical observations were conducted for all study animals prior to each of the four cumulative doses in a series. Individual body weights were conducted for all study animals at transfer, prior to randomization, on the day of dosing on each of the 3 cycles of dosing. The body weights recorded at transfer and prior to randomization are not reported but are maintained in the study file. Veterinary care was available throughout the course of the study, and animals were examined by the veterinary staff as needed based on clinical signs or other changes. All animals were provided with HydroGel the night prior to their respective dosing days to potentially mitigate any animal welfare issues related to fluid loss/dehydration.
Neurobehavioral evaluations (blinded) were conducted for all study animals 1 hour following the last (4th) cumulative dose of the series. The neurobehavioral parameters evaluated included: activity measurements (arousal/alertness, posture/body carriage, stereotypy, rearing, and appearance), autonomic measurements (exophthalmus, lacrimation, erected fur, pupil response, salivation, defecation, and palpebral closure/ptosis), excitability measurements (vocalizations, startle response, ease of removal, handling reactivity, and convulsions), neuromuscular measurements (gait/mobility, grip strength/response, air righting reflex, tremor, and body tone), physiological measurements (respiration and body temperature), and sensorimotor measurements (touch response/tactile reflex and thermal response).

[1] = test system: L-type calcium channel phenylalkylamine binding site; assay: Eurofins Panlabs radioligand binding panel, L-type calcium channel; parameters: species or system Rat
[2] = 1 h after last of 4 hourly SC injections, R-MDMA and racemic MDMA 10, 20 mg/kg/day, S-MDMA 5, 10 mg/kg/day
[3] = 1 h after last of 4 hourly SC injections, racemic MDMA 10, 20 mg/kg/day, S-MDMA 5, 10 mg/kg/day
[4] = FOB, cumulative SC dosing, dose groups stated in the value
[5] = 10 half-log concentrations, 0.3 nM to 10 μM, duplicate

In the case of `CNC(C)Cc1ccc2c(c1)OCO2` (single isomer, unassigned) [S-MDMA, S(+)-MDMA], the arousal/alertness and rearing (CD (Sprague Dawley) rats; [2]) is reported as “general increase in overall levels of arousal/alertness and rearing”, the “ease of removal from the home cage and handling reactivity (excitability)” value (CD (Sprague Dawley) rats; [2]) is reported as “Dose-dependent increased difficulty in removal from the home cage and increased handling reactivity” and the forelimb grip strength (CD (Sprague Dawley) rats; [2]) is reported as “dose-dependent statistically significant decreases in forelimb grip strength”. The “salivation and erected fur (autonomic)” value (CD (Sprague Dawley) rats; [2]) was “Dose-dependent increased salivation and erected fur”, the unkempt appearance (CD (Sprague Dawley) rats; [2]) was “increased incidence of unkempt appearance in a dose-dependent manner” and the “stereotypies (mouth movements/weaving, circling/retropulsion, sniffing)” value (CD (Sprague Dawley) rats; 1 h after last of 4 hourly SC injections, highest doses: S-MDMA 10, racemic-MDMA 20 mg/kg/day, R-MDMA 10, 20 mg/kg/day) was “observed in animals treated with S-MDMA and racemic-MDMA only at the highest tested doses; also recorded: only one S-MDMA-treated animal was reported with stereotypical behaviors”. For the same compound, the general gait/mobility changes (CD (Sprague Dawley) rats; [3]) was “General gait/mobility changes were only observed”, the respiration (CD (Sprague Dawley) rats; [3]) was “Rapid respiration was noted” and the “Rank Order Activity Measurement Effects” value (CD (Sprague Dawley) rats; [4]) was “S-MDMA (5 mg/kg/day) < R-MDMA (10 mg/kg/day) < Rac.-MDMA (10 mg/kg/day); also recorded: Rac.-MDMA (20 mg/kg/day) < S-MDMA (10 mg/kg/day) < R-MDMA (20 mg/kg/day); also recorded: S-MDMA (0 mg/kg/day) < S-MDMA (5 mg/kg/day) < S-MDMA (10 mg/kg/day); also recorded: Rac.-MDMA (20 mg/kg/day) < S-MDMA (10 mg/kg/day) < R-MDMA (10 mg/kg/day)”. The “Rank Order Autonomic Measurement Effects” value (CD (Sprague Dawley) rats; [4]) was “R-MDMA (10 mg/kg/day) < S-MDMA (5 mg/kg/day) < Rac.-MDMA (10 mg/kg/day); also recorded: R-MDMA (20 mg/kg/day) < S-MDMA (10 mg/kg/day) < Rac-MDMA (20 mg/kg/day); also recorded: S-MDMA (0 mg/kg/day) < S-MDMA (5 mg/kg/day) < S-MDMA (10 mg/kg/day); also recorded: R-MDMA (10 mg/kg/day) < S-MDMA (10 mg/kg/day) = Rac-MDMA (20 mg/kg/day)”, the “Rank Order Excitability Measurement Effects” value (CD (Sprague Dawley) rats; [4]) was “R-MDMA (10 mg/kg/day) < S-MDMA (5 mg/kg/day) < Rac.-MDMA (10 mg/kg/day); also recorded: R-MDMA (20 mg/kg/day) = S-MDMA (10 mg/kg/day) < Rac-MDMA (20 mg/kg/day); also recorded: S-MDMA (0 mg/kg/day) < S-MDMA (5 mg/kg/day) < S-MDMA (10 mg/kg/day); also recorded: R-MDMA (10 mg/kg/day) < S-MDMA (10 mg/kg/day) < Rac-MDMA (20 mg/kg/day)” and the “Rank Order Neuromuscular Measurement Effects” value (CD (Sprague Dawley) rats; [4]) was “R-MDMA (10 mg/kg/day) < S-MDMA (5 mg/kg/day) < Rac.-MDMA (10 mg/kg/day); also recorded: R-MDMA (20 mg/kg/day) = S-MDMA (10 mg/kg/day) < Rac-MDMA (20 mg/kg/day); also recorded: S-MDMA (0 mg/kg/day) < S-MDMA (5 mg/kg/day) = S-MDMA (10 mg/kg/day); also recorded: R-MDMA (10 mg/kg/day) < S-MDMA (10 mg/kg/day) < Rac-MDMA (20 mg/kg/day)”. The “Rank Order Physiological Measurement Effects” value (CD (Sprague Dawley) rats; [4]) was “R-MDMA (10 mg/kg/day) < S-MDMA (5 mg/kg/day) < Rac.-MDMA (10 mg/kg/day); also recorded: R-MDMA (20 mg/kg/day) < S-MDMA (10 mg/kg/day) = Rac-MDMA (20 mg/kg/day); also recorded: S-MDMA (0 mg/kg/day) < S-MDMA (5 mg/kg/day) < S-MDMA (10 mg/kg/day); also recorded: R-MDMA (10 mg/kg/day) < S-MDMA (10 mg/kg/day) = Rac-MDMA (20 mg/kg/day)”, the “Rank Order Sensorimotor Measurement Effects” value (CD (Sprague Dawley) rats; [4]) was “S-MDMA (5 mg/kg/day) < Rac-MDMA (10 mg/kg/day) < R-MDMA (10 mg/kg/day); also recorded: S-MDMA (10 mg/kg/day) < Rac-MDMA (20 mg/kg/day) < R-MDMA (20 mg/kg/day); also recorded: S-MDMA (0 mg/kg/day) < S-MDMA (10 mg/kg/day) < S-MDMA (5 mg/kg/day)” and the thermal response times (CD (Sprague Dawley) rats; at levels at least two-fold that of vehicle-treated groups, 1 h after last of 4 hourly SC injections) was “Statistically significant increases in thermal response times”. For the same compound, the “% inhibition of binding or activity” value ([1]; 10 uM) was 51%, the IC50 [1, 5] was 9.31 µM and the Ki [1, 5] was 9.05 µM.
